The target of this assay is Human factor D (Homo sapiens (Human), UniProt P00746). Put plainly: Human Factor D Assay. Format: biochemical. The following applies: Human factor D 80 nM, substrate Z-L-Lys-SBzl, assay of Example 12. Summed up: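 Serum-purified human factor D (80 nM final) was preincubated 5 min at room temperature with compound in 50 mM Tris, 1 M NaCl, pH 7.5. Z-L-Lys-SBzl and DTNB (100 μM each) were added and OD405 followed kinetically over 30 min; IC50 from non-linear regression of percent inhibition.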
Chain of Human factor D (P00746 26-253): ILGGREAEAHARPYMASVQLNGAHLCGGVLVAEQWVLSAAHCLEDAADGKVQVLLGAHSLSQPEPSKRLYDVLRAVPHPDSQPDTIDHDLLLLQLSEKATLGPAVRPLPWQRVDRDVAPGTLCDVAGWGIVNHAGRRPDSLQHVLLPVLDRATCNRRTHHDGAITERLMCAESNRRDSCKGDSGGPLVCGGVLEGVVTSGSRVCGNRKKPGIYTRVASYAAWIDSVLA

pIC50: −log10 of the molar value. Bounds are passed on as bounds.

Consider `NC(=O)c1nn(CC(=O)N2C[C@H](F)C[C@H]2C(=O)Nc2cncc(-c3ccccc3Cl)n2)c2ccc(C#Cc3ncc(F)cn3)cc12` [Compound 85, 1-(2-((2S,4R)-2-(6-(2-chlorophenyl)pyrazin-2-ylcarbamoyl)-4-fluoropyrrolidin-1-yl)-2-oxoethyl)-5-((5-fluoropyrimidin-2-yl)ethynyl)-1H-indazole-3-carboxamide], for which the pIC50 was > 6.00.

With `NC(=O)c1nn(CC(=O)N2C[C@H](F)C[C@H]2C(=O)Nc2cccc(Br)n2)c2ccc(C#Cc3ncccn3)cc12` [Compound 39, 1-(2-((2S,4R)-2-(6-bromopyridin-2-ylcarbamoyl)-4-fluoropyrrolidin-1-yl)-2-oxoethyl)-5-(pyrimidin-2-ylethynyl)-1H-indazole-3-carboxamide], the pIC50 is > 6.00.

In the case of `NC(=O)c1nn(CC(=O)N2[C@@H]3C[C@@H]3C[C@H]2C(=O)Nc2cccc(Br)n2)c2ccc(C#Cc3ncc(C(F)(F)F)cn3)cc12` [Compound 61, 1-(2-((1R,3S,5R)-3-(6-bromopyridin-2-ylcarbamoyl)-2-azabicyclo[3.1.0]hexan-2-yl)-2-oxoethyl)-5-((5-(trifluoromethyl)pyrimidin-2-yl)ethynyl)-1H-indazole-3-carboxamide], the pIC50 is > 6.00.

As for `CC(C)=C(F)CNC(=O)[C@@H]1C[C@@H](F)CN1C(=O)Cn1nc(C(N)=O)c2cc(C#Cc3ncccn3)ccc21` [Compound 45, 1-(2-((2S,4R)-4-fluoro-2-(2-fluoro-3-methylbut-2-enylcarbamoyl)pyrrolidin-1-yl)-2-oxoethyl)-5-(pyrimidin-2-ylethynyl)-1H-indazole-3-carboxamide], the pIC50 was > 6.00.

`NC(=O)c1nn(CC(=O)N2C[C@H](F)C[C@H]2C(=O)Nc2cccc(-c3cc(F)c(F)cc3Cl)c2F)c2ccc(C#Cc3ncc(F)cn3)cc12` [Compound 63, 1-(2-((2S,4R)-2-(2′-chloro-2,4′,5′-trifluorobiphenyl-3-ylcarbamoyl)-4-fluoropyrrolidin-1-yl)-2-oxoethyl)-5-((5-fluoropyrimidin-2-yl)ethynyl)-1H-indazole-3-carboxamide]: the pIC50 is > 6.00.

For `NC(=O)c1nn(CC(=O)N2C[C@H](F)C[C@H]2C(=O)NCc2cccc(Cl)c2F)c2ccc(C#Cc3ncc(F)cn3)cc12` [Compound 40, 1-(2-((2S,4R)-2-(3-chloro-2-fluorobenzylcarbamoyl)-4-fluoropyrrolidin-1-yl)-2-oxoethyl)-5-((5-fluoropyrimidin-2-yl)ethynyl)-1H-indazole-3-carboxamide], the pIC50 is > 6.00.

Take `NC(=O)c1nn(CC(=O)N2[C@@H]3C[C@@H]3C[C@H]2C(=O)Nc2cccc(-c3ccc(F)cc3Cl)c2F)c2ccc(C#Cc3ncc(F)cn3)cc12` [Compound 64, 1-(2-((1R,3S,5R)-3-(2′-chloro-2,4′-difluorobiphenyl-3-ylcarbamoyl)-2-azabicyclo[3.1.0]hexan-2-yl)-2-oxoethyl)-5-((5-fluoropyrimidin-2-yl)ethynyl)-1H-indazole-3-carboxamide]: the negative-log IC50 (pIC50) is > 6.00.

Turning to `NC(=O)c1nn(CC(=O)N2CC[C@@H](O)[C@H]2C(=O)NCc2cccc(Cl)c2F)c2ccc(C#Cc3ncccn3)cc12` [Compound 52, 1-(2-((2S,3R)-2-(3-chloro-2-fluorobenzylcarbamoyl)-3-hydroxypyrrolidin-1-yl)-2-oxoethyl)-5-(pyrimidin-2-ylethynyl)-1H-indazole-3-carboxamide], the pIC50 is > 6.00.

As for `O=C(O)C#Cc1ccc2c(C(=O)C(F)(F)F)cn(CC(=O)N3C[C@H](F)C[C@H]3C(=O)NCc3cccc(Cl)c3F)c2c1` [Compound 11, 3-(1-(2-((2S,4R)-2-(3-chloro-2-fluorobenzylcarbamoyl)-4-fluoropyrrolidin-1-yl)-2-oxoethyl)-3-(2,2,2-trifluoroacetyl)-1H-indol-6-yl)propiolic acid], the pIC50 was > 6.00.

For `CC(=O)c1cn(CC(=O)N2C[C@H](F)C[C@H]2C(=O)NCc2cccc(Cl)c2F)c2cc(C#C[Si](C)(C)C)ccc12` [Compound 3, (2S,4R)-1-(2-(3-acetyl-6-((trimethylsilyl)ethynyl)-1H-indol-1-yl)acetyl)-N-(3-chloro-2-fluorobenzyl)-4-fluoropyrrolidine-2-carboxamide], the pIC50 is > 6.00.

Consider `NC(=O)c1nn(CC(=O)N2C[C@H](F)C[C@H]2C(=O)Nc2cccc(-c3ccccc3Cl)c2F)c2ccc(C#Cc3cnccn3)cc12` [Compound 83, 1-(2-((2S,4R)-2-(2′-chloro-2-fluorobiphenyl-3-ylcarbamoyl)-4-fluoropyrrolidin-1-yl)-2-oxoethyl)-5-(pyrazin-2-ylethynyl)-1H-indazole-3-carboxamide], for which the pIC50 was > 6.00.

In the case of `CC(=O)c1cn(CC(=O)N2C[C@H](F)C[C@H]2C(=O)NCc2cccc(Cl)c2F)c2cc(C#Cc3c[nH]c(=O)nc3N)ccc12` [Compound 5, (2S,4R)-1-(2-(3-acetyl-6-((4-amino-2-oxo-1,2-dihydropyrimidin-5-yl)ethynyl)-1H-indol-1-yl)acetyl)-N-(3-chloro-2-fluorobenzyl)-4-fluoropyrrolidine-2-carboxamide], the pIC50 was > 6.00.

With `NC(=O)c1nn(CC(=O)N2C[C@H](F)C[C@H]2C(=O)Nc2ccc(C(F)(F)F)c(Cl)n2)c2ccc(C#Cc3ncc(F)cn3)cc12` [Compound 76, 1-(2-((2S,4R)-2-(6-chloro-5-(trifluoromethyl)pyridin-2-ylcarbamoyl)-4-fluoropyrrolidin-1-yl)-2-oxoethyl)-5-((5-fluoropyrimidin-2-yl)ethynyl)-1H-indazole-3-carboxamide], the pIC50 is > 6.00.

In the case of `NC(=O)c1nn(CC(=O)N2C[C@H](F)C[C@H]2C(=O)Nc2cccc(-c3ccccc3Cl)c2F)c2ccc(C#Cc3cccnn3)cc12` [Compound 73, 1-(2-((2S,4R)-2-(2′-chloro-2-fluorobiphenyl-3-ylcarbamoyl)-4-fluoropyrrolidin-1-yl)-2-oxoethyl)-5-(pyridazin-3-ylethynyl)-1H-indazole-3-carboxamide], the pIC50 is > 6.00.

On to `NC(=O)c1nn(CC(=O)N2[C@@H]3CC(F)(F)[C@@H]3C[C@H]2C(=O)NCc2cccc(Cl)c2F)c2ccc(C#Cc3ncccn3)cc12` [Compound 51, 1-(2-((1R,3S,5R)-3-(3-chloro-2-fluorobenzylcarbamoyl)-6,6-difluoro-2-azabicyclo[3.2.0]heptan-2-yl)-2-oxoethyl)-5-(pyrimidin-2-ylethynyl)-1H-indazole-3-carboxamide], for which the pIC50 was 5.00 to 6.00.

`NC(=O)c1nn(CC(=O)N2[C@@H]3C[C@@H]3C[C@H]2C(=O)Nc2cccc(Br)n2)c2ccc(C#Cc3ncccn3)cc12` [Compound 41, 1-(2-((1R,3S,5R)-3-(6-bromopyridin-2-ylcarbamoyl)-2-azabicyclo[3.1.0]hexan-2-yl)-2-oxoethyl)-5-(pyrimidin-2-ylethynyl)-1H-indazole-3-carboxamide]: the pIC50 is > 6.00.

As to `CC(=O)c1cn(CC(=O)N2C[C@H](F)C[C@H]2C(=O)NCc2cccc(Cl)c2F)c2ccc(C#Cc3cnsc3)cc12` [Compound 18, (2S,4R)-1-(2-(3-acetyl-5-(isothiazol-4-ylethynyl)-1H-indol-1-yl)acetyl)-N-(3-chloro-2-fluorobenzyl)-4-fluoropyrrolidine-2-carboxamide], the pIC50 was > 6.00.

For `NC(=O)c1nn(CC(=O)N2C[C@H](F)C[C@H]2C(=O)Nc2cncc(Br)c2)c2ccc(C#Cc3ncc(F)cn3)cc12` [Compound 68, 1-(2-((2S,4R)-2-(5-bromopyridin-3-ylcarbamoyl)-4-fluoropyrrolidin-1-yl)-2-oxoethyl)-5-((5-fluoropyrimidin-2-yl)ethynyl)-1H-indazole-3-carboxamide], the pIC50 was > 6.00.

As to `NC(=O)c1nn(CC(=O)N2C[C@H](F)C[C@H]2C(=O)Nc2cncc(-c3c(F)cccc3Cl)n2)c2ccc(C#Cc3ncc(F)cn3)cc12` [Compound 86, 1-(2-((2S,4R)-2-(6-(2-chloro-6-fluorophenyl)pyrazin-2-ylcarbamoyl)-4-fluoropyrrolidin-1-yl)-2-oxoethyl)-5-((5-fluoropyrimidin-2-yl)ethynyl)-1H-indazole-3-carboxamide], the pIC50 is > 6.00.

For the compound `NC(=O)c1nn(CC(=O)N2C[C@H](F)C[C@H]2C(=O)Nc2cccc(-c3ncccc3Cl)c2F)c2ccc(C#Cc3ncccn3)cc12` [Compound 28, 1-(2-((2S,4R)-2-(3-(3-chloropyridin-2-yl)-2-fluorophenylcarbamoyl)-4-fluoropyrrolidin-1-yl)-2-oxoethyl)-5-(pyrimidin-2-ylethynyl)-1H-indazole-3-carboxamide], the pIC50 was > 6.00.

Regarding `NC(=O)c1nn(CC(=O)N2C[C@H](F)C[C@H]2C(=O)Nc2cccc(C(F)(F)F)n2)c2ccc(C#Cc3ncccn3)cc12` [Compound 33, 1-(2-((2S,4R)-4-fluoro-2-(6-(trifluoromethyl)pyridin-2-ylcarbamoyl)pyrrolidin-1-yl)-2-oxoethyl)-5-(pyrimidin-2-ylethynyl)-1H-indazole-3-carboxamide], the negative logarithm of the IC50 (pIC50) is > 6.00.

Regarding `CC(=O)c1cn(CC(=O)N2[C@@H]3C[C@@H]3C[C@H]2C(=O)Nc2cccc(Br)n2)c2ccc(C#Cc3ncccn3)cc12` [Compound 21, (1R,3S,5R)-2-(2-(3-acetyl-5-(pyrimidin-2-ylethynyl)-1H-indol-1-yl)acetyl)-N-(6-bromopyridin-2-yl)-2-azabicyclo[3.1.0]hexane-3-carboxamide], the pIC50 is > 6.00.

For the compound `NC(=O)c1nn(CC(=O)N2C[C@H](F)C[C@H]2C(=O)Nc2cccc(-c3ccccc3Cl)c2F)c2ccc(C#Cc3ncccn3)cc12` [Compound 22, 1-(2-((2S,4R)-2-(2′-chloro-2-fluorobiphenyl-3-ylcarbamoyl)-4-fluoropyrrolidin-1-yl)-2-oxoethyl)-5-(pyrimidin-2-ylethynyl)-1H-indazole-3-carboxamide], the pIC50 is > 6.00.

Values taken from patent publication US9828396B2, “Alkyne compounds for treatment of complement mediated disorders” (Achillion Pharmaceuticals, Inc., priority 2014, dated 2017).
